Experimental data published in patent US20230085307A1, “PYRIDAZINONE COMPOUND AND HERBICIDE” (NISSAN CHEMICAL CORPORATION, priority 2019, published 2023).

Experiments:
green foxtail [1] = test: Test Example 5: herbicidal effect by foliage application, plastic box (Table 20, symbol G); assay type: in vivo, green foxtail (Setaria viridis); conditions: amount of applied herbicide 320 g/ha; foliage application after 14-day growth; evaluated three weeks after application
In short: (§1)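 Plants sown in sterilized diluvial soil and grown 14 days in a greenhouse at 25° C to 30° C, then sprayed on the foliage with the compound's emulsion diluted in water to a predetermined herbicide amount. Injury to weeds and crops scored three weeks after application on a visual rating scale.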

windgrass [2] = test: Test Example 4: herbicidal effect by soil treatment (Table 19, symbol L); assay type: in vivo, windgrass (Apera spica-venti); conditions: amount of applied herbicide 320 g/ha
In short: (§2)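 Three weeks of greenhouse growth at 25° C. to 30° C. followed a uniform surface spray of water-diluted emulsion at a predetermined herbicide amount. Seeds had been sown beforehand under about 1.5 cm of sterilized diluvial soil. Grading followed criteria set out in an earlier test.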

Japanese bulrush = test: Test Example 1: herbicidal activity, application before weed generation under submerged conditions (Table 16, symbol B); assay type: in vivo, Japanese bulrush (Schoenoplectus juncoides); conditions: amount of applied herbicide 320 g/ha
In short: (§3)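 Submerged Wagner pots (alluvial soil, 4 cm water) sown with weed seeds and planted with 2.5-leaf rice seedlings; emulsifiable concentrate diluted in water applied to water surface on sowing day. Held in greenhouse at 25-30 °C; injury scored 0-5 by herbicidal rate after three weeks.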

lambsquarters [3] = test: Test Example 4: herbicidal effect by soil treatment (Table 19, symbol O); assay type: in vivo, lambsquarters (Chenopodium album); conditions: amount of applied herbicide 320 g/ha
In short: as §2

persian speedwell [4] = test: Test Example 4: herbicidal effect by soil treatment (Table 19, symbol R); assay type: in vivo, Persian speedwell (Veronica persica); conditions: amount of applied herbicide 320 g/ha
In short: as §2

southern crabgrass [5] = test: Test Example 5: herbicidal effect by foliage application, plastic box (Table 20, symbol F); assay type: in vivo, southern crabgrass (Digitaria ciliaris); conditions: amount of applied herbicide 320 g/ha; foliage application after 14-day growth; evaluated three weeks after application
In short: as §1

velvetleaf [6] = test: Test Example 4: herbicidal effect by soil treatment (Table 19, symbol M); assay type: in vivo, velvetleaf (Abutilon theophrasti); conditions: amount of applied herbicide 320 g/ha
In short: as §2

chickweed [7] = test: Test Example 4: herbicidal effect by soil treatment (Table 19, symbol P); assay type: in vivo, common chickweed (Stellaria media); conditions: amount of applied herbicide 320 g/ha
In short: as §2

redroot pigweed [8] = test: Test Example 5: herbicidal effect by foliage application, plastic box (Table 20, symbol N); assay type: in vivo, redroot pigweed (Amaranthus retroflexus); conditions: amount of applied herbicide 320 g/ha; foliage application after 14-day growth; evaluated three weeks after application
In short: as §1

barnyard grass [9] = test: Test Example 4: herbicidal effect by soil treatment (Table 19, symbol H); assay type: in vivo, barnyard grass (Echinochloa crus-galli); conditions: amount of applied herbicide 320 g/ha
In short: as §2

rice flat sedge = test: Test Example 3: herbicidal effect by foliage application, Wagner pot (Table 18, symbol E); assay type: in vivo, rice flat sedge (Cyperus iria); conditions: 320 g/ha
In short: (§4)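 Plants were sown in alluvial soil held under 0.1–0.5 cm standing water and grown 14 days in a greenhouse at 25–30 °C. An emulsifiable formulation, water-diluted to the set dose, was then sprayed onto the foliage, and effects were scored three weeks later using previously defined criteria.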

Italian ryegrass [10] = test: Test Example 5: herbicidal effect by foliage application, plastic box (Table 20, symbol K); assay type: in vivo, Italian ryegrass (Lolium multiflorum); conditions: amount of applied herbicide 320 g/ha; foliage application after 14-day growth; evaluated three weeks after application
In short: as §1

windgrass [11] = test: Test Example 5: herbicidal effect by foliage application, plastic box (Table 20, symbol L); assay type: in vivo, windgrass (Apera spica-venti); conditions: amount of applied herbicide 320 g/ha; foliage application after 14-day growth; evaluated three weeks after application
In short: as §1

lambsquarters [12] = test: Test Example 5: herbicidal effect by foliage application, plastic box (Table 20, symbol O); assay type: in vivo, lambsquarters (Chenopodium album); conditions: amount of applied herbicide 320 g/ha; foliage application after 14-day growth; evaluated three weeks after application
In short: as §1

barnyard grass [13] = test: Test Example 5: herbicidal effect by foliage application, plastic box (Table 20, symbol H); assay type: in vivo, barnyard grass (Echinochloa crus-galli); conditions: amount of applied herbicide 320 g/ha; foliage application after 14-day growth; evaluated three weeks after application
In short: as §1

green foxtail [14] = test: Test Example 4: herbicidal effect by soil treatment (Table 19, symbol G); assay type: in vivo, green foxtail (Setaria viridis); conditions: amount of applied herbicide 320 g/ha
In short: as §2

blackgrass [15] = test: Test Example 5: herbicidal effect by foliage application, plastic box (Table 20, symbol J); assay type: in vivo, blackgrass (Alopecurus myosuroides); conditions: amount of applied herbicide 320 g/ha; foliage application after 14-day growth; evaluated three weeks after application
In short: as §1

wild oat [16] = test: Test Example 5: herbicidal effect by foliage application, plastic box (Table 20, symbol I); assay type: in vivo, wild oat (Avena fatua); conditions: amount of applied herbicide 320 g/ha; foliage application after 14-day growth; evaluated three weeks after application
In short: as §1

southern crabgrass [17] = test: Test Example 4: herbicidal effect by soil treatment (Table 19, symbol F); assay type: in vivo, southern crabgrass (Digitaria ciliaris); conditions: amount of applied herbicide 320 g/ha
In short: as §2

wild oat [18] = test: Test Example 4: herbicidal effect by soil treatment (Table 19, symbol I); assay type: in vivo, wild oat (Avena fatua); conditions: amount of applied herbicide 320 g/ha
In short: as §2

oval-leafed pondweed = test: Test Example 1: herbicidal activity, application before weed generation under submerged conditions (Table 16, symbol C); assay type: in vivo, oval-leafed pondweed (Monochoria vaginalis); conditions: amount of applied herbicide 320 g/ha
In short: as §3

redroot pigweed [19] = test: Test Example 4: herbicidal effect by soil treatment (Table 19, symbol N); assay type: in vivo, redroot pigweed (Amaranthus retroflexus); conditions: amount of applied herbicide 320 g/ha
In short: as §2

persian speedwell [20] = test: Test Example 5: herbicidal effect by foliage application, plastic box (Table 20, symbol R); assay type: in vivo, Persian speedwell (Veronica persica); conditions: amount of applied herbicide 320 g/ha; foliage application after 14-day growth; evaluated three weeks after application
In short: as §1

barnyard grass [21] = test: Test Example 3: herbicidal effect by foliage application, Wagner pot (Table 18, symbol H); assay type: in vivo, barnyard grass (Echinochloa crus-galli); conditions: 320 g/ha
In short: as §4

velvetleaf [22] = test: Test Example 5: herbicidal effect by foliage application, plastic box (Table 20, symbol M); assay type: in vivo, velvetleaf (Abutilon theophrasti); conditions: amount of applied herbicide 320 g/ha; foliage application after 14-day growth; evaluated three weeks after application
In short: as §1

late watergrass = test: Test Example 1: herbicidal activity, application before weed generation under submerged conditions (Table 16, symbol A); assay type: in vivo, late watergrass (Echinochloa oryzicola); conditions: amount of applied herbicide 320 g/ha
In short: as §3

blackgrass [23] = test: Test Example 4: herbicidal effect by soil treatment (Table 19, symbol J); assay type: in vivo, blackgrass (Alopecurus myosuroides); conditions: amount of applied herbicide 320 g/ha
In short: as §2

chickweed [24] = test: Test Example 5: herbicidal effect by foliage application, plastic box (Table 20, symbol P); assay type: in vivo, common chickweed (Stellaria media); conditions: amount of applied herbicide 320 g/ha; foliage application after 14-day growth; evaluated three weeks after application
In short: as §1

Italian ryegrass [25] = test: Test Example 4: herbicidal effect by soil treatment (Table 19, symbol K); assay type: in vivo, Italian ryegrass (Lolium multiflorum); conditions: amount of applied herbicide 320 g/ha
In short: as §2

Chinese sprangletop = test: Test Example 3: herbicidal effect by foliage application, Wagner pot (Table 18, symbol D); assay type: in vivo, chinese sprangletop (Leptochloa chinensis); conditions: 320 g/ha
In short: as §4

Row | Compound | Herbicidal effect by foliage application, G: green foxtail (green foxtail [1]) | L: windgrass, herbicidal effect grade (windgrass [2]) | Herbicidal effect, B: Japanese bulrush (Japanese bulrush) | O: lambsquarters, herbicidal effect grade (lambsquarters [3]) | R: persian speedwell, herbicidal effect grade (persian speedwell [4]) | Herbicidal effect by foliage application, F: southern crabgrass (southern crabgrass [5]) | M: velvetleaf, herbicidal effect grade (velvetleaf [6]) | P: chickweed, herbicidal effect grade (chickweed [7]) | Herbicidal effect by foliage application, N: redroot pigweed (redroot pigweed [8]) | H: barnyard grass, herbicidal effect grade (barnyard grass [9]) | herbicidal effect on rice flat sedge (E) (rice flat sedge) | Herbicidal effect by foliage application, K: Italian ryegrass (Italian ryegrass [10]) | Herbicidal effect by foliage application, L: windgrass (windgrass [11]) | Herbicidal effect by foliage application, O: lambsquarters (lambsquarters [12]) | Herbicidal effect by foliage application, H: barnyard grass (barnyard grass [13]) | G: green foxtail, herbicidal effect grade (green foxtail [14]) | Herbicidal effect by foliage application, J: blackgrass (blackgrass [15]) | Herbicidal effect by foliage application, I: wild oat (wild oat [16]) | F: southern crabgrass, herbicidal effect grade (southern crabgrass [17]) | I: wild oat, herbicidal effect grade (wild oat [18]) | further results
1 | COCc1ccc(-c2sc3cc(F)c(F)cc3c2-c2c(O)c(C)nn(C)c2=O)cc1 [5-009] | 3 (Herbicidal rate of 40% or more and less than 70%) | 0 (Herbicidal rate of 5% or less (almost no effect)) | 0 (Herbicidal rate of 5% or less (almost no effect)) | 4 (Herbicidal rate of 70% or more and less than 90%) | 5 (Herbicidal rate of 90% or more (almost completely withered)) | 2 (Herbicidal rate of 20% or more and less than 40%) | 2 (Herbicidal rate of 20% or more and less than 40%) | 5 (Herbicidal rate of 90% or more (almost completely withered)) | 5 (Herbicidal rate of 90% or more (almost completely withered)) | 0 (Herbicidal rate of 5% or less (almost no effect)) | 3 (Herbicidal rate of 40% or more and less than 70%) | 3 (Herbicidal rate of 40% or more and less than 70%) | 0 (Herbicidal rate of 5% or less (almost no effect)) | 3 (Herbicidal rate of 40% or more and less than 70%) | 3 (Herbicidal rate of 40% or more and less than 70%) | 2 (Herbicidal rate of 20% or more and less than 40%) | 0 (Herbicidal rate of 5% or less (almost no effect)) | 0 (Herbicidal rate of 5% or less (almost no effect)) | 0 (Herbicidal rate of 5% or less (almost no effect)) | 0 (Herbicidal rate of 5% or less (almost no effect)) | Herbicidal effect, C: oval-leafed pondweed (oval-leafed pondweed): 0 (Herbicidal rate of 5% or less (almost no effect)); N: redroot pigweed, herbicidal effect grade (redroot pigweed [19]): 4 (Herbicidal rate of 70% or more and less than 90%); Herbicidal effect by foliage application, R: persian speedwell (persian speedwell [20]): 5 (Herbicidal rate of 90% or more (almost completely withered)); herbicidal effect on barnyard grass (H) (barnyard grass [21]): 4 (Herbicidal rate of 70% or more and less than 90%); Herbicidal effect by foliage application, M: velvetleaf (velvetleaf [22]): 4 (Herbicidal rate of 70% or more and less than 90%); Herbicidal effect, A: late watergrass (late watergrass): 2 (Herbicidal rate of 20% or more and less than 40%); J: blackgrass, herbicidal effect grade (blackgrass [23]): 0 (Herbicidal rate of 5% or less (almost no effect)); Herbicidal effect by foliage application, P: chickweed (chickweed [24]): 5 (Herbicidal rate of 90% or more (almost completely withered)); K: Italian ryegrass, herbicidal effect grade (Italian ryegrass [25]): 0 (Herbicidal rate of 5% or less (almost no effect)); herbicidal effect on Chinese sprangletop (D) (Chinese sprangletop): 3 (Herbicidal rate of 40% or more and less than 70%)
2 | CCOc1ccccc1-c1sc2cc(F)c(F)cc2c1-c1c(O)c(C)nn(C)c1=O [5-016] | 5 (Herbicidal rate of 90% or more (almost completely withered)) | 5 (Herbicidal rate of 90% or more (almost completely withered)) | 1 (Herbicidal rate of 5% or more and less than 20%) | 5 (Herbicidal rate of 90% or more (almost completely withered)) | 5 (Herbicidal rate of 90% or more (almost completely withered)) | 4 (Herbicidal rate of 70% or more and less than 90%) | 4 (Herbicidal rate of 70% or more and less than 90%) | 5 (Herbicidal rate of 90% or more (almost completely withered)) | 5 (Herbicidal rate of 90% or more (almost completely withered)) | 5 (Herbicidal rate of 90% or more (almost completely withered)) | 5 (Herbicidal rate of 90% or more (almost completely withered)) | 3 (Herbicidal rate of 40% or more and less than 70%) | 5 (Herbicidal rate of 90% or more (almost completely withered)) | 4 (Herbicidal rate of 70% or more and less than 90%) | 5 (Herbicidal rate of 90% or more (almost completely withered)) | 5 (Herbicidal rate of 90% or more (almost completely withered)) | 4 (Herbicidal rate of 70% or more and less than 90%) | 0 (Herbicidal rate of 5% or less (almost no effect)) | 4 (Herbicidal rate of 70% or more and less than 90%) | 0 (Herbicidal rate of 5% or less (almost no effect)) | Herbicidal effect, C: oval-leafed pondweed (oval-leafed pondweed): 0 (Herbicidal rate of 5% or less (almost no effect)); N: redroot pigweed, herbicidal effect grade (redroot pigweed [19]): 5 (Herbicidal rate of 90% or more (almost completely withered)); Herbicidal effect by foliage application, R: persian speedwell (persian speedwell [20]): 5 (Herbicidal rate of 90% or more (almost completely withered)); herbicidal effect on barnyard grass (H) (barnyard grass [21]): 5 (Herbicidal rate of 90% or more (almost completely withered)); Herbicidal effect by foliage application, M: velvetleaf (velvetleaf [22]): 5 (Herbicidal rate of 90% or more (almost completely withered)); Herbicidal effect, A: late watergrass (late watergrass): 3 (Herbicidal rate of 40% or more and less than 70%); J: blackgrass, herbicidal effect grade (blackgrass [23]): 4 (Herbicidal rate of 70% or more and less than 90%); Herbicidal effect by foliage application, P: chickweed (chickweed [24]): 5 (Herbicidal rate of 90% or more (almost completely withered)); K: Italian ryegrass, herbicidal effect grade (Italian ryegrass [25]): 3 (Herbicidal rate of 40% or more and less than 70%); herbicidal effect on Chinese sprangletop (D) (Chinese sprangletop): 2 (Herbicidal rate of 20% or more and less than 40%)
